The results in this text go back to patent US6599882B1, “Secretin and secretin pharmaceuticals for treating lactose intolerance” (priority 1999, dated 2003).

This assay concerns lactose intolerant individuals.

Ends that are not written are not given here.

Consider “secretin (HSDGTFTSELSRLRDSARLQRLLQGLV; ends and bridges not checked; UniProt P63298 33-59, looked up)”, for which the “time after infusion until some slight symptoms of lactose intolerance started again” value (one severely lactose intolerant individual, one-time infusion) is “about 3 months”. Also, the “symptoms of lactose intolerance after consuming dairy and other lactose containing products” value (one-time intravenous infusion, 1 CU per kilogram of body weight over about 1 to 4 minutes, prolonged period of time after treatment, listed as secretion) is on record as “without experiencing any of the symptoms of lactose intolerance”.
